Measurements published in ChEMBL document CHEMBL4033775, “Natural-Products-Inspired Use of the gem-Dimethyl Group in Medicinal Chemistry” (J Med Chem, 2018).
pEC50, pIC50, pKi: −log10 of the molar value. Converted amounts (≈) assume the structure as drawn. Blank lines part the entries; values can stand above or below the molecule they belong to.

Columns and labels:
[1] = target: Prothrombin (Homo sapiens, UniProt P00734); assay: Inhibition of human plasma thrombin using chromogenix AB as substrate after 30 secs by UV-spectrophotometry
[2] = target: Prothrombin (Bos taurus, UniProt P00735); assay: Inhibition of bovine plasma thrombin using chromogenix AB as substrate after 30 secs by UV-spectrophotometry
[3] = organism: Homo sapiens; assay: Antagonist activity at nAChR (unknown origin) relative to (+/-)-mecamylamine
[4] = target: Retinoic acid receptor RXR-beta (Homo sapiens, UniProt P28702); assay: Agonist activity at RXRbeta (unknown origin)
Retinoic acid receptor RXR-beta, sequence (P28702 whole entry): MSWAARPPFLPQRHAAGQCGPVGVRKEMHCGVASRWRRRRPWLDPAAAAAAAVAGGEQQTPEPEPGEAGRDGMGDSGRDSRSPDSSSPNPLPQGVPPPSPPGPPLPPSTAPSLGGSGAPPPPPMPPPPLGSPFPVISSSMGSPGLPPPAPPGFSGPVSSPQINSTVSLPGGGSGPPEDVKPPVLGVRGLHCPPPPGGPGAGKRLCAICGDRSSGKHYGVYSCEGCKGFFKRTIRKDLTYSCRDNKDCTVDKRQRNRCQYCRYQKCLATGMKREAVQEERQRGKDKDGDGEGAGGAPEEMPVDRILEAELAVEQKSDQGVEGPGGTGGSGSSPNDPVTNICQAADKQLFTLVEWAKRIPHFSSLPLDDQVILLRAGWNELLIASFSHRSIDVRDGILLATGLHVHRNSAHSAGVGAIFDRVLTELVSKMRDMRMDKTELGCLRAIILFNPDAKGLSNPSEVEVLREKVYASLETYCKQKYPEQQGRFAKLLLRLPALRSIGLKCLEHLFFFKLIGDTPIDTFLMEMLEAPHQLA

[5] = target: Retinoic acid receptor RXR-gamma (Homo sapiens, UniProt P48443); assay: Agonist activity at RXRgamma (unknown origin)
Retinoic acid receptor RXR-gamma, sequence (P48443 whole entry): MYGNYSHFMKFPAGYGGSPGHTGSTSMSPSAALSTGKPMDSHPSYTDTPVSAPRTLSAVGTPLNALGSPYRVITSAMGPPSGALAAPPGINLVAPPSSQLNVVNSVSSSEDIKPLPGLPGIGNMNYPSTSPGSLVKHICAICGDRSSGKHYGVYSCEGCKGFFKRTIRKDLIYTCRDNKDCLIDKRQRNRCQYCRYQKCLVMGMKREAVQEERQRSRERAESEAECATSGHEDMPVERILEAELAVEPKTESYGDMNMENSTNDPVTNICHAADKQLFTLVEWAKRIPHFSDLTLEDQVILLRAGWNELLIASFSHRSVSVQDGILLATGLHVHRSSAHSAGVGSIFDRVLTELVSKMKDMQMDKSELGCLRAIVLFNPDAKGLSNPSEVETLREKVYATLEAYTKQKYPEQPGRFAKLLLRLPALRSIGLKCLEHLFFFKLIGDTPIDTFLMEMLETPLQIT

[6] = target: Retinoic acid receptor alpha (Homo sapiens, UniProt P10276); assay: Agonist activity at RARaplha (unknown origin)
Retinoic acid receptor alpha, sequence (P10276 whole entry): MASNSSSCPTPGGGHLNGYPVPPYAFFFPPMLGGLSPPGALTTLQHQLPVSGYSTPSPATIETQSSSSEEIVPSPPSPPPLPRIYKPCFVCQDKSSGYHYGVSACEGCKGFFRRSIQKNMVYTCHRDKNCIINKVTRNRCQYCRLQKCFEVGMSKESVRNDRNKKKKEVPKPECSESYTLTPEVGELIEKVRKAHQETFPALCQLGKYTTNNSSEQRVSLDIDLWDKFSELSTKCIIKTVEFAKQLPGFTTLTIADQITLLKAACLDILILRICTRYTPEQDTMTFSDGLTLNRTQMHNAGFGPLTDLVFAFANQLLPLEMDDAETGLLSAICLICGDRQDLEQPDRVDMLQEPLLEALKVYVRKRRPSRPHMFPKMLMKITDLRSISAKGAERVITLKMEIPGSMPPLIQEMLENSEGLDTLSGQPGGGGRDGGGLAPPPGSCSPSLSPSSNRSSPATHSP

[7] = target: Retinoic acid receptor beta (Homo sapiens, UniProt P10826); assay: Agonist activity at RARbeta (unknown origin)
Retinoic acid receptor beta, sequence (P10826 whole entry): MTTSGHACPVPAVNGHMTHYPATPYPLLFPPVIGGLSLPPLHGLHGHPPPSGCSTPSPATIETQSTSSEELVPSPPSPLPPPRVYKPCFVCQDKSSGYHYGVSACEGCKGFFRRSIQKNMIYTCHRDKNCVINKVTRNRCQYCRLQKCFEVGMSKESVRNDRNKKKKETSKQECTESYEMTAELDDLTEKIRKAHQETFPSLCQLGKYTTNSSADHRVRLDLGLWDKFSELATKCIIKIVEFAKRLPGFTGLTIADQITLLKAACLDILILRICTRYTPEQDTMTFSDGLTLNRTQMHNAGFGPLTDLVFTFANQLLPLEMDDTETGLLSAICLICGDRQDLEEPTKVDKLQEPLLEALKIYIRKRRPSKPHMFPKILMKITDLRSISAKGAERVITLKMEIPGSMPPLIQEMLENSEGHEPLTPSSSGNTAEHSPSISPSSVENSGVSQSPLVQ

[8] = target: Retinoic acid receptor gamma (Homo sapiens, UniProt P13631); assay: Agonist activity at RARgamma (unknown origin)
Retinoic acid receptor gamma, sequence (P13631 whole entry): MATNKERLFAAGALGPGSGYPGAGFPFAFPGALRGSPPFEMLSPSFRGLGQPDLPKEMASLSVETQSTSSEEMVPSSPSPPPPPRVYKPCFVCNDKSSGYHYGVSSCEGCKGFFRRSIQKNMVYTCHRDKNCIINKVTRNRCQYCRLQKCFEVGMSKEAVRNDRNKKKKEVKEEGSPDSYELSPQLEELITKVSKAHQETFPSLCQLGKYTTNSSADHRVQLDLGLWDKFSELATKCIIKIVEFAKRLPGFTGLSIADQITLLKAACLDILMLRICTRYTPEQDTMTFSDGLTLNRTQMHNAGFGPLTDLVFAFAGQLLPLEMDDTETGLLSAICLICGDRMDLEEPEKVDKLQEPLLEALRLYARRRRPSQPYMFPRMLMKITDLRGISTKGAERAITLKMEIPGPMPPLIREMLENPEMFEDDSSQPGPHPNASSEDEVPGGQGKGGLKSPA

[9] = test system: Enterococcus faecalis; assay: Antibacterial activity against Enterococcus faecalis; type: functional
[10] = test system: Staphylococcus aureus; assay: Antibacterial activity against methicillin-resistant Staphylococcus aureus; type: functional
[11] = test system: Human immunodeficiency virus 1; assay: Antiviral activity against HIV1 3B infected in human H9 cells after 4 days by ELISA; type: functional, cell-based; details: Human immunodeficiency virus 1, 3B, H9, 96 h
[12] = test system: 1A9; assay: Cytotoxicity against human 1A9 cells; type: functional, cell-based
[13] = test system: A549; assay: Cytotoxicity against human A549 cells; type: functional, cell-based
[14] = target: Insulin-like growth factor 1 receptor (Homo sapiens, UniProt P08069); assay: Antagonist activity at human GST-tagged IGF-1R (950 to […] residues) expressed in baculovirus after 5 mins in presence of [gamma33P]-ATP by top count method
Insulin-like growth factor 1 receptor, sequence (P08069 31-736 limits assumed): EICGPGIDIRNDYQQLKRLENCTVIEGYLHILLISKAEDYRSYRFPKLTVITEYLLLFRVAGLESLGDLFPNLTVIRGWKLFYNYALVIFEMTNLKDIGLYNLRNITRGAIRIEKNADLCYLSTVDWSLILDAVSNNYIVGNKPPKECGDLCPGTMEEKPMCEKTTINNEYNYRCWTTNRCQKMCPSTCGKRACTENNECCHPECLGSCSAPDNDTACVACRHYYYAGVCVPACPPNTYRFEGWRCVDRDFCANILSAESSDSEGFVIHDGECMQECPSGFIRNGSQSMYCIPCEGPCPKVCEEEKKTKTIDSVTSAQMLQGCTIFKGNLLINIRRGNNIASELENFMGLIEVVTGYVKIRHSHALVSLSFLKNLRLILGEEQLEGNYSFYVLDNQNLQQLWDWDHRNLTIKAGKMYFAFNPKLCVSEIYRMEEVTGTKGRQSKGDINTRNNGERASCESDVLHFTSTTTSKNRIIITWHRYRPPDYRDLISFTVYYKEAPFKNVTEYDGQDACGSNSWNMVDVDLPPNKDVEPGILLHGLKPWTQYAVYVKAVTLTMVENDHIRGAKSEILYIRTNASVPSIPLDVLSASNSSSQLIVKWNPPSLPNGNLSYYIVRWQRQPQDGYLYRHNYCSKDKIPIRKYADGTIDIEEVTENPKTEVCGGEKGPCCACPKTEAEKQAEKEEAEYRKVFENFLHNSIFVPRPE
Insulin-like growth factor 1 receptor, sequence (P08069 741-1367 limits assumed): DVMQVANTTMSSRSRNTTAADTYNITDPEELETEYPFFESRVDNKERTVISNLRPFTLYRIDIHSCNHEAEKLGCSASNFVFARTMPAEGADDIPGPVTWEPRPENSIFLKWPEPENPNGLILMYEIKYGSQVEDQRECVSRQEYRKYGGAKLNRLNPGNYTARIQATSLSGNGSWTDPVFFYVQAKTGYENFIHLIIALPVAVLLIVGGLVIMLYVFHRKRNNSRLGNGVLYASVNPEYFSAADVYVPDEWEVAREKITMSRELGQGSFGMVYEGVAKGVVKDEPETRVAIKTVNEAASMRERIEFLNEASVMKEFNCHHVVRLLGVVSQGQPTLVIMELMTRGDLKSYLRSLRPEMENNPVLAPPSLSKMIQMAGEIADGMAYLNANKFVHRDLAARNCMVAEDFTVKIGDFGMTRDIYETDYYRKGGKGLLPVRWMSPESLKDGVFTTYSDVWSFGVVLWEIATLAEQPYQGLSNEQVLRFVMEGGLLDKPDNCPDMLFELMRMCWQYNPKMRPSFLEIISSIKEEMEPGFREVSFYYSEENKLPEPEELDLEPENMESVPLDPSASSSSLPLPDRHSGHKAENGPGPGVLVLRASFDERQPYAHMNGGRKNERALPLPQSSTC

[15] = test system: Rattus norvegicus; assay: Anti-hypertensive activity in conscious spontaneously hypertensive Okamoto rat assessed as reduction in systolic blood pressure at 0.3 mg/kg, po measured up to 6 hrs post dose relative to control; type: functional; parameters: scale not given: the % may be the effect or the level left
[16] = test system: Rattus norvegicus; assay: Anti-hypertensive activity in conscious spontaneously hypertensive Okamoto rat assessed as reduction in systolic blood pressure at 0.1 mg/kg, po measured up to 6 hrs post dose relative to control; type: functional; parameters: scale not given: the % may be the effect or the level left
[17] = target: D(2) dopamine receptor (Homo sapiens, UniProt P14416); assay: Displacement of [3H]methylspiperone from human D2 receptor expressed in HEK cells; type: cell-based
D(2) dopamine receptor, sequence (P14416 whole entry): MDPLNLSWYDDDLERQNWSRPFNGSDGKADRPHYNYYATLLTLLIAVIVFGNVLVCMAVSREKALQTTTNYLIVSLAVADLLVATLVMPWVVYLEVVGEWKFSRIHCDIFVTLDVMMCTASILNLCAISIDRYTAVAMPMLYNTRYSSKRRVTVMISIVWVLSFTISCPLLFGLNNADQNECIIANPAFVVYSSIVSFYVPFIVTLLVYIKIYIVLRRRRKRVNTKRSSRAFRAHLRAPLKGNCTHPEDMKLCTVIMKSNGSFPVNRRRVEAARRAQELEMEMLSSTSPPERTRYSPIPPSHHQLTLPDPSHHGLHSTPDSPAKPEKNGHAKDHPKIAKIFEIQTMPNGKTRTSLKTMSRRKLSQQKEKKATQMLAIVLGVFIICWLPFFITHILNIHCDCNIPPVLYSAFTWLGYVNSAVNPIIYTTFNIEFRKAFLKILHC

[18] = target: 5-hydroxytryptamine receptor 2A (Homo sapiens, UniProt P28223)
5-hydroxytryptamine receptor 2A, sequence (P28223 whole entry): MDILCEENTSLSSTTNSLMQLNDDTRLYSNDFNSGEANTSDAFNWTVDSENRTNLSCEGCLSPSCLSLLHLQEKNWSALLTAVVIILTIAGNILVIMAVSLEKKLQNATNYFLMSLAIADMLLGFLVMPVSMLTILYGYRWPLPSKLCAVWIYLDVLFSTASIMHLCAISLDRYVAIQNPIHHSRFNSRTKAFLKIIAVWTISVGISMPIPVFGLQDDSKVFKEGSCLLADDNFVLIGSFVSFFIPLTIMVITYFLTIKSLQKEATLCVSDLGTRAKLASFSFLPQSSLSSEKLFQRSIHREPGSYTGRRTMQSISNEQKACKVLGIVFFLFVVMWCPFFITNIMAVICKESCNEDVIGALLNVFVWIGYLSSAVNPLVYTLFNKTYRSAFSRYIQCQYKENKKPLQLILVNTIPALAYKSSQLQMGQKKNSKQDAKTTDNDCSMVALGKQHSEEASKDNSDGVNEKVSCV

[19] = Clearance in po dosed rat; type: ADME, organism-based; details: in vivo
[20] = test system: Clostridioides difficile; assay: Antibacterial activity against Clostridium difficile; type: functional
[21] = test system: Human immunodeficiency virus; assay: Antiviral activity against Human immunodeficiency virus assessed as reduction in maturation; type: functional; details: Human immunodeficiency virus 1
[22] = Inhibition of bacterial DNA gyrase subunit B; parameters: species or system Bacteria
[23] = test system: Rattus norvegicus; assay: Anti-hypertensive activity in conscious spontaneously hypertensive Okamoto rat assessed as reduction in systolic blood pressure at 1 mg/kg, po measured up to 6 hrs post dose relative to control; type: functional; parameters: scale not given: the % may be the effect or the level left
[24] = test system: Trypanosoma brucei brucei; assay: Antitrypanosomal activity against Trypanosoma brucei brucei after 72 hrs by resazurin-based fluorescence assay; type: functional

pKi [1]: 7.52
pKi [2]: 7.30
Structure (SMILES): CC1(C)CNc2c(cccc2S(=O)(=O)N[C@@H](CCCNC(=N)N)C(=O)N2CCC(CCO)CC2)C1

fold change (FC) [3]: 3
Structure (SMILES): CN[C@@]1(C)[C@H]2CC[C@@H](C2)C1(C)C

pEC50 [4]: 5.62
pEC50 [5]: 5.59
pEC50 [6]: < 5.00
pEC50 [7]: < 5.00
pEC50 [8]: < 5.00
Structure (SMILES): C=C(c1ccc(C(=O)O)cc1)c1cc2c(cc1C)CCCC2(C)C

Structure (SMILES): Cc1cc(O)cc(O)c1-c1cc(O)cc2cc3c(c(O)c12)C(=O)c1c(O)cc(O)c(Cl)c1C3(C)C
MIC [9]: 0.8 µg/mL (≈ 1.62 µM)
MIC [10]: 3.1 µg/mL (≈ 6.29 µM)

Structure (SMILES): CC(=O)O[C@@H]1[C@H](OC(=O)CC(C)C)c2c(ccc3ccc(=O)oc23)OC1(C)C [SUKSDORFIN]
pIC50 [11]: 5.59

Structure (SMILES): C/C(=C\c1csc(C)n1)[C@@H]1C[C@@H]2O[C@]2(C)CCC[C@H](C)[C@H](O)[C@@H](C)C(=O)C(C)(C)[C@@H](O)CC(=O)O1 [PATUPILONE]
pIC50 [12]: 10.22

Structure (SMILES): CO[C@H]1C(=O)[C@]2(C)[C@@H](OC)C[C@H]3OC[C@@]3(OC(C)=O)[C@H]2[C@H](OC(=O)c2ccccc2)[C@]2(O)C[C@H](OC(=O)[C@H](O)[C@@H](NC(=O)OC(C)(C)C)c3ccccc3)C(C)=C1C2(C)C [CABAZITAXEL]
pIC50 [13]: 8.83

pIC50 [14]: 8.00
Structure (SMILES): CC(C)(Oc1cccc(-c2cn([C@H]3C[C@@H](CN4CCC4)C3)c3ncnc(N)c23)c1)[C@@H]1CCCO1

pEC50 [4]: 6.11
pEC50 [5]: 6.22
pEC50 [6]: < 5.00
pEC50 [7]: < 5.00
pEC50 [8]: < 5.00
Structure (SMILES): C=C(c1ccc(C(=O)O)cc1)c1cc2c(cc1C)C(C)(C)CCC2

Structure (SMILES): CC1(C)Oc2ccc(C#N)cc2C(N2CCCC2=O)C1O (stereo in doubt; 110) [CROMAKALIM]
Activity [15]: 47%
Activity [16]: 31%

pKi [17]: 5.36
pKi [18]: 5.44
Structure (SMILES): CC1(C)CC(=O)N(CCCCN2CCN(c3ncccn3)CC2)C(=O)C1 [GEPIRONE]

Structure (SMILES): C/C(=C\c1csc(C)n1)[C@@H]1C[C@@H]2O[C@]2(C)CCC[C@H](C)[C@H](O)[C@@H](C)C(=O)C(C)(C)[C@@H](O)CC(=O)N1 [IXABEPILONE]
pIC50 [12]: 8.18

CL/F [19]: 120 mL/min/kg
Structure (SMILES): N=C(N)NC(=O)[C@H]1C[C@@H]1c1cccc2c1CCO2

Structure (SMILES): CCc1c(Cl)c(O)c(Cl)c(O)c1C(=O)O[C@H]1[C@H](O)[C@H](OC)[C@H](OC/C2=C\C=C\C[C@H](O)/C(C)=C/[C@H](CC)[C@@H](O[C@@H]3OC(C)(C)[C@@H](OC(=O)C(C)C)[C@H](O)[C@@H]3O)/C(C)=C/C(C)=C/C[C@H]([C@@H](C)O)OC2=O)O[C@@H]1C
MIC90 [20]: 0.125 to 0.25 µg/mL (≈ 0.118 to 0.236 µM)

Structure (SMILES): C=C(C)[C@@H]1CC[C@]2(C(=O)O)CC[C@]3(C)[C@H](CC[C@@H]4[C@@]5(C)CC[C@H](OC(=O)CC(C)(C)C(=O)O)C(C)(C)[C@@H]5CC[C@]43C)[C@@H]12 [BEVIRIMAT]
pEC50 [21]: 7.99

pKi [2]: 7.30
Structure (SMILES): C[C@H]1CNc2c(cccc2S(=O)(=O)N[C@@H](CCCNC(=N)N)C(=O)N2CCC(CCO)CC2)C1

Structure (SMILES): CO[C@@H]1[C@@H](OC(=O)c2ccc(C)[nH]2)[C@@H](O)[C@H](Oc2ccc3c(O)c(NC(=O)c4ccc(O)c(CC=C(C)C)c4)c(=O)oc3c2Cl)OC1(C)C [CHLOROBIOCIN]
pIC50 [22]: 7.52

Structure (SMILES): CC1(C)Oc2ccc(C#N)cc2C(N2CCCC2=O)C1O (racemic) [CROMAKALIM]
Activity [15]: 39%
Activity [23]: 47%
Activity [16]: 13%

Structure (SMILES): CC1(C)OB(O)c2cc(NC(=O)c3ccc(F)cc3C(F)(F)F)ccc21 [ACOZIBOROLE]
pIC50 [24]: 6.25

pKi [1]: 7.40
pKi [2]: 7.30
Structure (SMILES): CC1CNc2c(cccc2S(=O)(=O)N[C@@H](CCCNC(=N)N)C(=O)N2CCC(CCO)CC2)C1 (mixture of isomers)
